Data on six molecules can be found in patent publication US8933039B2 (NPS Pharmaceuticals, Inc., priority 1995, dated 2015).

One data set has as its target DPP-IV (Homo sapiens, UniProt P27487). In words: Assay for resistance to dipeptidyl peptidase IV (RP-HPLC of cleavage product). The note with it: human, isolated human placental DPP-IV (dipeptidyl peptidase IV), pH 7.4, % Cleaved by DPP-IV, as Example 3: human placental DPP-IV, 37° C., PBS pH 7.4.
Another data set relates to CD1 mice. The data set is described as follows: Intestinotrophic activity assessment: small bowel weight in mice. In kind it is in vivo. The following applies: mice, as Example 4; relative to native rat GLP-2(1-33). As for the experimental part: Recipients were CD1 mice obtained from Charles River Laboratory (Ontario, Canada). The CD1 mice were aged-matched females at time of injection (n=3-4 per group), 6 weeks of age, unless otherwise specified. The animals were allowed a minimum of 24 hours to acclimatize to the laboratory facility before the initiation of each experiment. Animals were identified by ear punch. The mice were not restricted by diet or activity during the experiments. The light/dark cycle was 12 hours, between 6 pm to 6 am. Controls were age- and sex-matched (n=3-4) animals. Mice were injected subcutaneously, twice a day (b.i.d.), with 2.5 μg peptide in a total volume of 0.5 cc of PBS and were monitored daily in the laboratory facility. Animals were sacrificed 10 or 14 days after injection, and were fasted at least 20 hours before sacrifice.
The mice were anaesthetised with CO2 and exsanguinated by cardiac puncture. Blood was collected in 75 μl of TED (Trasysol; EDTA (5000 KIU/ml: 1.2 mg/ml; Diprotin-A), and the blood was centrifuged at 14 k×g for 5 minutes and the plasma was stored at −70 prior to analysis. The small bowel was removed from the peritoneal cavity, from pylorus to cecum, cleaned weighed and measured. For comparative purpose, sections from each animal were obtained from the identical anatomical position. Fragments each measuring 1.5-2.0 cm in length were obtained 8±2 cm, 18±2 cm, 32±2 cm from pylorus for histomorphometry representing proximal jejunum, distal jejunum and distal ileum. Each small bowel fragment was opened longitudinally on its antimesenteric border in a tissue block and then placed on 10% formalin (vol./vol.) overnight, then transferred to 70% […].
Percentage change in small bowel weight was calculated by dividing the mean change in bowel weight of analog treated mice, relative to mice treated with vehicle only, by the mean bowel weight of mice treated with vehicle only, and multiplying this figure by 100.
Experiments assessing the small bowel inducing activity of various analogs was repeated as described above for Example 4. In these experiments, the small bowel inducing activity of each analog in mice was calculated relative to that of native rat GLP-2(1-33) (expressed as 100% of activity). Resistance of analogs to DPP-IV cleavage was performed as described above in Example 3.

Non-standard residues stand in square brackets, D forms with d. Residues, ends and D or L forms follow the SMILES beside them. Pen = CC(C)(S)[C@H](N)C(=O)O; Phg = N[C@H](C(=O)O)c1ccccc1; Nva = CCC[C@H](N)C(=O)O; Abu = CC[C@H](N)C(=O)O; βAla = NCCC(=O)O

Sequence of DPP-IV (P27487 whole entry): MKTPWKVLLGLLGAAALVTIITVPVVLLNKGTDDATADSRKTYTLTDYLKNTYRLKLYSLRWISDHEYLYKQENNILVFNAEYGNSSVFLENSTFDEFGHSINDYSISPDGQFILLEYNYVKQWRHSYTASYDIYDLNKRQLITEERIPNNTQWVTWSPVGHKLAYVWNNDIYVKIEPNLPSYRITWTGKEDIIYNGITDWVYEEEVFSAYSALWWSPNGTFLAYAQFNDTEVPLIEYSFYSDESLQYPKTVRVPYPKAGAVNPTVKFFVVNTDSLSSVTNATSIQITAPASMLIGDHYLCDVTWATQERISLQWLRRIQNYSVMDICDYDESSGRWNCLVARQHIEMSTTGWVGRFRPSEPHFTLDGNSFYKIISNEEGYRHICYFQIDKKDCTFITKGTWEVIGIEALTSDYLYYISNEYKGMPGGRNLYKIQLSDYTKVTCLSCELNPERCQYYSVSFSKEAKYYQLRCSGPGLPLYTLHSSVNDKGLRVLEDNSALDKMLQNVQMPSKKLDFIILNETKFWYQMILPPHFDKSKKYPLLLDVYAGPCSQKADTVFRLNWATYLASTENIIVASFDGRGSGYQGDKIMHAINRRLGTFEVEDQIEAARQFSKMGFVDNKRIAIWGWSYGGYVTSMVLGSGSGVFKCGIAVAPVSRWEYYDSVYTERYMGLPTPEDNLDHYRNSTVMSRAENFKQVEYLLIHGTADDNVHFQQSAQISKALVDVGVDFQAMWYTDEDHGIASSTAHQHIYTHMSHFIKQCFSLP

As for `CC[C@H](C)[C@H](NC(=O)[C@H](Cc1ccccc1)NC(=O)[C@H](CC(=O)O)NC(=O)[C@H](CCCNC(=N)N)NC(=O)[C@H](C)NC(=O)[C@H](C)NC(=O)[C@H](CC(C)C)NC(=O)[C@H](CC(N)=O)NC(=O)[C@H](CC(=O)O)NC(=O)[C@H](CC(C)C)NC(=O)[C@@H](NC(=O)[C@@H](NC(=O)[C@H](CC(N)=O)NC(=O)[C@H](CCSC)NC(=O)[C@H](CCC(=O)O)NC(=O)[C@H](CC(=O)O)NC(=O)[C@H](CO)NC(=O)[C@H](Cc1ccccc1)NC(=O)[C@H](CO)NC(=O)CNC(=O)[C@H](CC(=O)O)NC(=O)CNC(=O)[C@@H](N)Cc1c[nH]cn1)[C@@H](C)O)[C@@H](C)CC)C(=O)N[C@@H](CC(N)=O)C(=O)N[C@@H](Cc1c[nH]c2ccccc12)C(=O)N[C@@H](CC(C)C)C(=O)N[C@H](C(=O)N[C@@H](CCC(N)=O)C(=O)N[C@H](C(=O)N[C@@H](CCCCN)C(=O)N[C@H](C(=O)N[C@H](C(=O)N[C@@H](CC(=O)O)C(=O)N[C@@H](Cc1ccc(O)cc1)C(=O)O)[C@@H](C)O)[C@@H](C)CC)[C@@H](C)O)[C@@H](C)CC` [[Gly2, Tyr34]hGLP-2(1-34)], the metabolised at 24 h, 0.19 mg/ml on DPP-IV came out at 0%. For the same molecule, the “% Activity (small bowel inducing activity relative to native rat GLP-2(1-33) = 100%)” value in the data set on CD1 mice is on record as 297%.
Taken in the same sequence, the figures for `CCC[C@H](NC(=O)[C@@H](N)Cc1c[nH]cn1)C(=O)N[C@@H](CC(=O)O)C(=O)NCC(=O)N[C@@H](CO)C(=O)N[C@@H](Cc1ccccc1)C(=O)N[C@@H](CO)C(=O)N[C@@H](CC(=O)O)C(=O)N[C@@H](CCC(=O)O)C(=O)N[C@@H](CCSC)C(=O)N[C@@H](CC(N)=O)C(=O)N[C@H](C(=O)N[C@H](C(=O)N[C@@H](CC(C)C)C(=O)N[C@@H](CC(=O)O)C(=O)N[C@@H](CC(N)=O)C(=O)N[C@@H](CC(C)C)C(=O)N[C@@H](C)C(=O)N[C@@H](C)C(=O)N[C@@H](CCCNC(=N)N)C(=O)N[C@@H](CC(=O)O)C(=O)N[C@@H](Cc1ccccc1)C(=O)N[C@H](C(=O)N[C@@H](CC(N)=O)C(=O)N[C@@H](Cc1c[nH]c2ccccc12)C(=O)N[C@@H](CC(C)C)C(=O)N[C@H](C(=O)N[C@@H](CCC(N)=O)C(=O)N[C@H](C(=O)N[C@@H](CCCCN)C(=O)N[C@H](C(=O)N[C@H](C(=O)N[C@@H](CC(=O)O)C(=O)O)[C@@H](C)O)[C@@H](C)CC)[C@@H](C)O)[C@@H](C)CC)[C@@H](C)CC)[C@@H](C)CC)[C@@H](C)O` [[Nval2]hGLP-2(1-33)] (H-H[Nva]DGSFSDEMNTILDNLAARDFINWLIQTKITD-OH) were 0% and 111%.
`CC[C@H](C)[C@H](NC(=O)[C@H](Cc1ccccc1)NC(=O)[C@H](CC(=O)O)NC(=O)[C@H](CCCNC(=N)N)NC(=O)[C@H](C)NC(=O)[C@H](C)NC(=O)[C@H](CC(C)C)NC(=O)[C@H](CC(N)=O)NC(=O)[C@H](CC(=O)O)NC(=O)[C@H](CC(C)C)NC(=O)[C@@H](NC(=O)[C@@H](NC(=O)[C@H](CC(N)=O)NC(=O)[C@H](CCSC)NC(=O)[C@H](CCC(=O)O)NC(=O)[C@H](CC(=O)O)NC(=O)[C@H](CO)NC(=O)[C@H](Cc1ccccc1)NC(=O)[C@H](CO)NC(=O)CNC(=O)[C@H](CC(=O)O)NC(=O)[C@@H](NC(=O)[C@@H](N)Cc1c[nH]cn1)C(C)(C)S)[C@@H](C)O)[C@@H](C)CC)C(=O)N[C@@H](CC(N)=O)C(=O)N[C@@H](Cc1c[nH]c2ccccc12)C(=O)N[C@@H](CC(C)C)C(=O)N[C@H](C(=O)N[C@@H](CCC(N)=O)C(=O)N[C@H](C(=O)N[C@@H](CCCCN)C(=O)N[C@H](C(=O)N[C@H](C(=O)N[C@@H](CC(=O)O)C(=O)O)[C@@H](C)O)[C@@H](C)CC)[C@@H](C)O)[C@@H](C)CC` [[Pen2]hGLP-2(1-33)] (H-H[Pen]DGSFSDEMNTILDNLAARDFINWLIQTKITD-OH) yielded a metabolised at 24 h, 0.19 mg/ml on DPP-IV of 20%. The “% Activity (small bowel inducing activity relative to native rat GLP-2(1-33) = 100%)” value in the data set with CD1 mice amounted to 58%.
On the same counts, the results for `CC[C@H](C)[C@H](NC(=O)[C@H](Cc1ccccc1)NC(=O)[C@H](CC(=O)O)NC(=O)[C@H](CCCNC(=N)N)NC(=O)[C@H](C)NC(=O)[C@H](C)NC(=O)[C@H](CC(C)C)NC(=O)[C@H](CC(N)=O)NC(=O)[C@H](CC(=O)O)NC(=O)[C@H](CC(C)C)NC(=O)[C@@H](NC(=O)[C@@H](NC(=O)[C@H](CC(N)=O)NC(=O)[C@H](CCSC)NC(=O)[C@H](CCC(=O)O)NC(=O)[C@H](CC(=O)O)NC(=O)[C@H](CO)NC(=O)[C@H](Cc1ccccc1)NC(=O)[C@H](CO)NC(=O)CNC(=O)[C@H](CC(=O)O)NC(=O)[C@@H](NC(=O)[C@@H](N)Cc1c[nH]cn1)c1ccccc1)[C@@H](C)O)[C@@H](C)CC)C(=O)N[C@@H](CC(N)=O)C(=O)N[C@@H](Cc1c[nH]c2ccccc12)C(=O)N[C@@H](CC(C)C)C(=O)N[C@H](C(=O)N[C@@H](CCC(N)=O)C(=O)N[C@H](C(=O)N[C@@H](CCCCN)C(=O)N[C@H](C(=O)N[C@H](C(=O)N[C@@H](CC(=O)O)C(=O)O)[C@@H](C)O)[C@@H](C)CC)[C@@H](C)O)[C@@H](C)CC` [[PhGly2]hGLP-2(1-33)] (H-H[Phg]DGSFSDEMNTILDNLAARDFINWLIQTKITD-OH) are 0% and 37%.
On the same counts, the results for `CC[C@H](NC(=O)[C@@H](N)Cc1c[nH]cn1)C(=O)N[C@@H](CC(=O)O)C(=O)NCC(=O)N[C@@H](CO)C(=O)N[C@@H](Cc1ccccc1)C(=O)N[C@@H](CO)C(=O)N[C@@H](CC(=O)O)C(=O)N[C@@H](CCC(=O)O)C(=O)N[C@@H](CCSC)C(=O)N[C@@H](CC(N)=O)C(=O)N[C@H](C(=O)N[C@H](C(=O)N[C@@H](CC(C)C)C(=O)N[C@@H](CC(=O)O)C(=O)N[C@@H](CC(N)=O)C(=O)N[C@@H](CC(C)C)C(=O)N[C@@H](C)C(=O)N[C@@H](C)C(=O)N[C@@H](CCCNC(=N)N)C(=O)N[C@@H](CC(=O)O)C(=O)N[C@@H](Cc1ccccc1)C(=O)N[C@H](C(=O)N[C@@H](CC(N)=O)C(=O)N[C@@H](Cc1c[nH]c2ccccc12)C(=O)N[C@@H](CC(C)C)C(=O)N[C@H](C(=O)N[C@@H](CCC(N)=O)C(=O)N[C@H](C(=O)N[C@@H](CCCCN)C(=O)N[C@H](C(=O)N[C@H](C(=O)N[C@@H](CC(=O)O)C(=O)O)[C@@H](C)O)[C@@H](C)CC)[C@@H](C)O)[C@@H](C)CC)[C@@H](C)CC)[C@@H](C)CC)[C@@H](C)O` [[aAbu2]hGLP-2(1-33)] (H-H[Abu]DGSFSDEMNTILDNLAARDFINWLIQTKITD-OH) are 49% and 84%.
Take `CC[C@H](C)[C@H](NC(=O)[C@H](Cc1ccccc1)NC(=O)[C@H](CC(=O)O)NC(=O)[C@H](CCCNC(=N)N)NC(=O)[C@H](C)NC(=O)[C@H](C)NC(=O)[C@H](CC(C)C)NC(=O)[C@H](CC(N)=O)NC(=O)[C@H](CC(=O)O)NC(=O)[C@H](CC(C)C)NC(=O)[C@@H](NC(=O)[C@@H](NC(=O)[C@H](CC(N)=O)NC(=O)[C@H](CCSC)NC(=O)[C@H](CCC(=O)O)NC(=O)[C@H](CC(=O)O)NC(=O)[C@H](CO)NC(=O)[C@H](Cc1ccccc1)NC(=O)[C@H](CO)NC(=O)CNC(=O)[C@H](CC(=O)O)NC(=O)CCNC(=O)[C@@H](N)Cc1c[nH]cn1)[C@@H](C)O)[C@@H](C)CC)C(=O)N[C@@H](CC(N)=O)C(=O)N[C@@H](Cc1c[nH]c2ccccc12)C(=O)N[C@@H](CC(C)C)C(=O)N[C@H](C(=O)N[C@@H](CCC(N)=O)C(=O)N[C@H](C(=O)N[C@@H](CCCCN)C(=O)N[C@H](C(=O)N[C@H](C(=O)N[C@@H](CC(=O)O)C(=O)O)[C@@H](C)O)[C@@H](C)CC)[C@@H](C)O)[C@@H](C)CC` [[bAla2]hGLP-2(1-33)] (H-H[βAla]DGSFSDEMNTILDNLAARDFINWLIQTKITD-OH): the metabolised at 24 h, 0.19 mg/ml on DPP-IV is 0%. In addition, the “% Activity (small bowel inducing activity relative to native rat GLP-2(1-33) = 100%)” value in the data set on CD1 mice was 118%.
